Test results: patent US9238666B2, “Phosphoramidic acid prodrugs of 5-[5-phenyl-4-(pyridin-2-ylmethylamino)quinazolin-2-yl] pyridine-3-sulfonamide” (BRISTOL-MYERS SQUIBB COMPANY, priority 2012, dated 2016)
In brackets after ≈: the same amount, converted by molar mass. Like-named read-outs stand apart in the source and are kept apart here.

Legend:
[1] = Solubility at different pH conditions (equilibrium, 24 h, HPLC); assay type: physicochemical
Experimental: Protocol for Solubility Studies of the Compounds of Instant Disclosure The solubility of the compounds of the present invention have been evaluated at various pH levels. The solubility was tested using the procedure described below. Excess amount of powder compound was equilibrated with 1 mL of buffer in a 2 mL glass vial and the dispersion of the compound in buffer ensured by vortexing, followed by sonication. The vials were shaken at 300 rpm at room temperature for 24 h. After 24 h incubation, the slurry was filtered and the filtrate analyzed by HPLC for the quantification of the solubilized fraction of compound using a four point calibration curve. Note: The incubation time was decided based on the aqueous stability data. If the compound was stable in the buffer up to 24 hrs, then the solubility was measured after 24 hrs, otherwise kinetic solubility data is reported. The solubility data at different pH conditions at 24 h (mg/mL) is provided in below Table 1.

[2] = target: Kv1.5 channel of voltage-gated K+ channels (Homo sapiens, UniProt P22460); test: Kv1.5 channel inhibition; assay type: cell-based
Kv1.5 channel of voltage-gated K+ channels, sequence (P22460 whole entry): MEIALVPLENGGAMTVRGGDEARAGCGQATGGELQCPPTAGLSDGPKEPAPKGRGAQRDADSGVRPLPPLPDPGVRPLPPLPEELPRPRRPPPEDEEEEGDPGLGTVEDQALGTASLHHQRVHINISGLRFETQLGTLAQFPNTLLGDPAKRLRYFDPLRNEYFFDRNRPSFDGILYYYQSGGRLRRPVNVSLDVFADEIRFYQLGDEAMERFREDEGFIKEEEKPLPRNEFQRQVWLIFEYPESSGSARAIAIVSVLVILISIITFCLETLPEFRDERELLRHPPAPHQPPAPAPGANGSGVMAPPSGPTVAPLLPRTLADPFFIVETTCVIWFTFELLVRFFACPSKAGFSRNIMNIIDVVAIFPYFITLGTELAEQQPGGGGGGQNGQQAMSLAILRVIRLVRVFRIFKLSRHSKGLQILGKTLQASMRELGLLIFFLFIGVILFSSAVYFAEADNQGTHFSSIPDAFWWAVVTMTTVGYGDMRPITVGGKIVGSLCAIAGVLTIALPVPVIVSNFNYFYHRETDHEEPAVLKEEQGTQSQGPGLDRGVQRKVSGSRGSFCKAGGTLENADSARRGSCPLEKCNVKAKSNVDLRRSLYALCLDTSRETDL
From the text: Assays to determine the degree of activity of a compound as an IKur inhibitor are well known in the art and are described in references such as J. Gen. Physiol., 101(4):513-543 (April 1993), and Br. J. Pharmacol., 115(2):267-274 (May 1995).
By displaying activity as inhibitors of the Kv1.5 channel of voltage-gated K+ channels, compounds of the present disclosure are expected to be useful in the treatment of human diseases associated with the Kv1.5 channel.

[3] = buffer, pH 1, aqueous buffer, thermodynamic from solid, pH 1, room temperature, read-out: Solubility at 24 h
[4] = buffer, pH 2, aqueous buffer, thermodynamic from solid, pH 2, room temperature, read-out: Solubility at 24 h
[5] = buffer, pH 3, aqueous buffer, thermodynamic from solid, pH 3, room temperature, read-out: Solubility at 24 h
[6] = buffer, pH 5, aqueous buffer, thermodynamic from solid, pH 5, room temperature, read-out: Solubility at 24 h
[7] = buffer, pH 6.5, aqueous buffer, thermodynamic from solid, pH 6.5, room temperature, read-out: Solubility at 24 h
[8] = buffer, pH 7.4, aqueous buffer, thermodynamic from solid, pH 7.4, room temperature, read-out: Solubility at 24 h

| SMILES | Solubility at 24 h ([1]; pH 1, room temperature) | Solubility at 24 h ([1]; pH 2, room temperature) | Solubility at 24 h ([1]; pH 3, room temperature) | Solubility at 24 h ([1]; pH 5, room temperature) | Solubility at 24 h ([1]; pH 6.5, room temperature) | Solubility at 24 h ([1]; pH 7.4, room temperature) | Solubility at 24 h [1, 3] | Solubility at 24 h [1, 4] | Solubility at 24 h [1, 5] | Solubility at 24 h [1, 6] | Solubility at 24 h [1, 7] | Solubility at 24 h [1, 8] | IC50 [2] |
| --- | --- | --- | --- | --- | --- | --- | --- | --- | --- | --- | --- | --- | --- |
| O=P(O)(O)NS(=O)(=O)c1cncc(-c2nc(NCc3ccccn3)c3c(-c4ccccc4)cccc3n2)c1 [Compound 8, Magnesium (5-(5-phenyl-4-((pyridin-2-ylmethyl)amino)quinazolin-2-yl)pyridin-3-yl)sulfonylphosphoramidate] | 600 µg/mL (≈ 1090 µM) | 20 µg/mL (≈ 36.5 µM) | 20 µg/mL (≈ 36.5 µM) | 30 µg/mL (≈ 54.7 µM) | 160 µg/mL (≈ 292 µM) | 190 µg/mL (≈ 346 µM) | – | – | – | – | – | – | – |
| O=P(O)(O)NS(=O)(=O)c1cncc(-c2nc(NCc3ccccn3)c3c(-c4ccccc4)cccc3n2)c1 [Compound 3, Trisodium (5-(5-phenyl-4-((pyridin-2-ylmethyl)amino)quinazolin-2-yl)pyridin-3-yl)sulfonylphosphoramidate] | 750 µg/mL | 110 µg/mL | 20 µg/mL | 150 µg/mL | 4620 µg/mL | 7300 µg/mL | – | – | – | – | – | – | – |
| O=P(O)(O)N(P(=O)(O)O)S(=O)(=O)c1cncc(-c2nc(NCc3ccccn3)c3c(-c4ccccc4)cccc3n2)c1 [Compound 10] | – | – | – | – | – | – | > 1740 µg/mL | > 4050 µg/mL | > 2110 µg/mL | > 5120 µg/mL | > 4580 µg/mL | > 1990 µg/mL | – |
| NS(=O)(=O)c1cncc(-c2nc(NCc3ccccn3)c3c(-c4ccccc4)cccc3n2)c1 [Compound 1, 5-(5-phenyl-4-((pyridin-2-ylmethyl)amino)quinazolin-2-yl)pyridine-3-sulfonamide, reference compound] | – | – | – | – | – | – | 6400 µg/mL (≈ 13700 µM) | 410 µg/mL (≈ 875 µM) | < 1 µg/mL | < 1 µg/mL | < 1 µg/mL | < 1 µg/mL | 46 nM |

The next lines start with the values.

| Solubility at 24 h ([1]; pH 1, room temperature) | Solubility at 24 h ([1]; pH 2, room temperature) | Solubility at 24 h ([1]; pH 3, room temperature) | Solubility at 24 h ([1]; pH 5, room temperature) | Solubility at 24 h ([1]; pH 6.5, room temperature) | Solubility at 24 h ([1]; pH 7.4, room temperature) | Solubility at 24 h [1, 3] | Solubility at 24 h [1, 4] | Solubility at 24 h [1, 5] | Solubility at 24 h [1, 6] | Solubility at 24 h [1, 7] | Solubility at 24 h [1, 8] | IC50 [2] | SMILES |
| --- | --- | --- | --- | --- | --- | --- | --- | --- | --- | --- | --- | --- | --- |
| 250 µg/mL (≈ 456 µM) | 30 µg/mL (≈ 54.7 µM) | 10 µg/mL (≈ 18.2 µM) | 2 µg/mL (≈ 3.65 µM) | 110 µg/mL (≈ 201 µM) | 560 µg/mL (≈ 1020 µM) | – | – | – | – | – | – | – | O=P(O)(O)NS(=O)(=O)c1cncc(-c2nc(NCc3ccccn3)c3c(-c4ccccc4)cccc3n2)c1 [Compound 2, 5-(5-Phenyl-4-(pyridin-2-ylmethylamino)quinazolin-2-yl)pyridin-3-ylsulfonylphosphoramidic acid] |
| 290 µg/mL | 90 µg/mL | 70 µg/mL | 250 µg/mL | 300 µg/mL | >1070 µg/mL | – | – | – | – | – | – | – | O=P(O)(O)NS(=O)(=O)c1cncc(-c2nc(NCc3ccccn3)c3c(-c4ccccc4)cccc3n2)c1 [Compound 6, Tripotassium (5-(5-phenyl-4-((pyridin-2-ylmethyl)amino)quinazolin-2-yl)pyridin-3-yl)sulfonylphosphoramidate] |
| 1620 µg/mL (≈ 2950 µM) | 80 µg/mL (≈ 146 µM) | 30 µg/mL (≈ 54.7 µM) | 22 µg/mL (≈ 40.1 µM) | 2023 µg/mL (≈ 3690 µM) | 2514 µg/mL (≈ 4580 µM) | – | – | – | – | – | – | – | O=P(O)(O)NS(=O)(=O)c1cncc(-c2nc(NCc3ccccn3)c3c(-c4ccccc4)cccc3n2)c1 [Compound 5, Tris-(5-(5-phenyl-4-((pyridin-2-ylmethyl)amino)quinazolin-2-yl)pyridin-3-yl)sulfonylphosphoramidate] |
| 990 µg/mL | 120 µg/mL | 20 µg/mL | 70 µg/mL | 1150 µg/mL | 2410 µg/mL | – | – | – | – | – | – | – | O=P(O)(O)NS(=O)(=O)c1cncc(-c2nc(NCc3ccccn3)c3c(-c4ccccc4)cccc3n2)c1 [Compound 7, Calcium (5-(5-phenyl-4-((pyridin-2-ylmethyl)amino)quinazolin-2-yl)pyridin-3-yl)sulfonylphosphoramidate] |
